# Reference: ChEMBL document CHEMBL1201862, “PubChem BioAssay data set” (2004)
# The source made the active and inactive calls.
# How the values were obtained:
# [1] = target: T1, Nuclear receptor subfamily 0 group B member 1 (Homo sapiens, UniProt P51843); assay type: functional, cell-based;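 note: HEK293T cells transfected with SF-1 and DAX-1 plus StAR promoter luciferase reporter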
# T1 sequence (P51843 whole entry): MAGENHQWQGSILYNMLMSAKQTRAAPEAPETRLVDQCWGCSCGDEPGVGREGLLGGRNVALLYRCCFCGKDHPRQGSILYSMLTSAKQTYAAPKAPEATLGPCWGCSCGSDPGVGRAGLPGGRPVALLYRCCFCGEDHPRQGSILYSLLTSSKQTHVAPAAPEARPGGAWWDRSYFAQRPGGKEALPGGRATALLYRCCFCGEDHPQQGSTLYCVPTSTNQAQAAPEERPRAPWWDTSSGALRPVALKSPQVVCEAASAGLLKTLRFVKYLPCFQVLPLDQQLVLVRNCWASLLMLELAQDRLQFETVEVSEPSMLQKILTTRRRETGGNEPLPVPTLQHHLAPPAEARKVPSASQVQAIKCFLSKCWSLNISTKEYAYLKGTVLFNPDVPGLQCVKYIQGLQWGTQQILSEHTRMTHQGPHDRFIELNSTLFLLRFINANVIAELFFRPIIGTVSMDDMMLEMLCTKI
# cells [2] = assay type: functional, cell-based
# [3] = C. albicans growth with fluconazole, confirmation, fluorescence, retest (AID 2467); assay type: functional, cell-based
# [4] = target: T2, Oxysterols receptor LXR-beta (Homo sapiens, UniProt P55055); assay type: functional, cell-based;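 note: Cell-based luminescence dose-response assay of agonist activity at LXR, run as a confirmatory counterscreen to a daf-12 agonist screen; HEK293 cells with Gal4-LXR fusion and GAL4-driven luciferase reporter; agonist potency from rising luciferase signal of a Gal4-LXR reporter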
# T2 sequence (P55055 whole entry): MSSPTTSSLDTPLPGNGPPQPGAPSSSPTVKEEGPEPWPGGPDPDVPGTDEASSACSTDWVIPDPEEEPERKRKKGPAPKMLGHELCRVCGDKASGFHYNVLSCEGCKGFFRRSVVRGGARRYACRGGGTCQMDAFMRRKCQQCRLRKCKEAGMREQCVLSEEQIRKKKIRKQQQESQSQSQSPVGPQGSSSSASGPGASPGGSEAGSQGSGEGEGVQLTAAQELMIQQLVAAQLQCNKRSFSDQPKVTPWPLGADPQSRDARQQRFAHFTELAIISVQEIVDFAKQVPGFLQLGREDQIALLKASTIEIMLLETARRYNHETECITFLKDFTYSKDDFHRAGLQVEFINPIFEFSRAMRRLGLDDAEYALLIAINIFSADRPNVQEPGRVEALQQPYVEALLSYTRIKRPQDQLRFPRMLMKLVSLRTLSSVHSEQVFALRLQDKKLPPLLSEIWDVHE
# [5] = NIH-3T3 fibroblast cytotoxicity, dose response, cytotoxicity control, cell-based, fluorescence, Alamar Blue, secondary assay (AID 2327); assay type: functional;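 note: NIH-3T3 mouse fibroblasts cultured with fluconazole at 8 µg/mL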
# cells [6] = test: cells
# fMet-Leu-Phe receptor = target: T3, fMet-Leu-Phe receptor (Homo sapiens, UniProt P21462); test: FPR ligands, dose response (AID 519); assay type: functional
# T3 sequence (P21462 whole entry): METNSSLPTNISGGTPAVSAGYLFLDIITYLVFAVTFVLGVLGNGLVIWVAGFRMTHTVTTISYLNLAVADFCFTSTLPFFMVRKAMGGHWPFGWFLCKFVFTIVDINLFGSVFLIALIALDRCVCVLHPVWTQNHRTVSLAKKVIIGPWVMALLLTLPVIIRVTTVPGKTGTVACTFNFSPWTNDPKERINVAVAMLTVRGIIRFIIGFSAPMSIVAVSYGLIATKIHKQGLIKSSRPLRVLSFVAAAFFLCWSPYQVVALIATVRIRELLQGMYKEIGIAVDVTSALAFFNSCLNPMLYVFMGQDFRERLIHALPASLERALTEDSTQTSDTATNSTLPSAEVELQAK
# [7] = target: T4, Methionyl-tRNA synthetase, putative (Trypanosoma brucei brucei, UniProt Q38C91); assay type: functional, Trypanosoma brucei brucei strain 927/4 GUTat10.1
# T4 sequence (Q38C91 whole entry): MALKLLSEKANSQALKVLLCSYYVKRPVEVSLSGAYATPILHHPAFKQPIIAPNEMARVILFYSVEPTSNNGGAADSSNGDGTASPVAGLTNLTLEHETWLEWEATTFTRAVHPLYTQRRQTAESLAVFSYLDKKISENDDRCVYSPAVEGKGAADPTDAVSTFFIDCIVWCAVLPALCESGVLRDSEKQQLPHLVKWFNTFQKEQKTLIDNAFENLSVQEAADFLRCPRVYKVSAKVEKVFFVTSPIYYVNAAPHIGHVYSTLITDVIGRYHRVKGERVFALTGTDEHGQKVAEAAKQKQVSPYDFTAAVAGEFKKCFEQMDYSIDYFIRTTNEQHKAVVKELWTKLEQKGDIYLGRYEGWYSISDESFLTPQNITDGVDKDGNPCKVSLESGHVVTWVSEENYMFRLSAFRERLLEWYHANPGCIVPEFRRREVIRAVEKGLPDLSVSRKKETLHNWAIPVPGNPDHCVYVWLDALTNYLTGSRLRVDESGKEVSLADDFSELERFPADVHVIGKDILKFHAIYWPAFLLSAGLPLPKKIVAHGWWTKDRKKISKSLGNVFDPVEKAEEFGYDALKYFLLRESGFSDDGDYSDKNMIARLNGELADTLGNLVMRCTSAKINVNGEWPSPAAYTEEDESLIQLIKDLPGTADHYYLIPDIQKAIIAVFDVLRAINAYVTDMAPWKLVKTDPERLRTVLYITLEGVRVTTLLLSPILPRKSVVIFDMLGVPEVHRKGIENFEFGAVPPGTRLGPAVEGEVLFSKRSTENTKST
# [8] = target: T4, Methionyl-tRNA synthetase, putative; assay type: functional, Trypanosoma brucei brucei strain 927/4 GUTat10.1; remark: listed apart in the source
# [9] = Counterscreen for inhibitors of Trypanosoma brucei methionyl tRNA synthetase (MetRS): Luminescence-based cell-based high throughput dose response assay to identify compounds that are cytotoxic to Jurkat human T lymphocyte cells.; assay type: functional
# Genome polyprotein = Genome polyprotein (dengue virus type 2, UniProt P29990); test: Dengue-2 NS5 methyltransferase inhibitors, primary screen, biochemical, confirmation dose response (AID 588689); assay type: functional
# Chain of Genome polyprotein (P29990 2492-3391 limits assumed): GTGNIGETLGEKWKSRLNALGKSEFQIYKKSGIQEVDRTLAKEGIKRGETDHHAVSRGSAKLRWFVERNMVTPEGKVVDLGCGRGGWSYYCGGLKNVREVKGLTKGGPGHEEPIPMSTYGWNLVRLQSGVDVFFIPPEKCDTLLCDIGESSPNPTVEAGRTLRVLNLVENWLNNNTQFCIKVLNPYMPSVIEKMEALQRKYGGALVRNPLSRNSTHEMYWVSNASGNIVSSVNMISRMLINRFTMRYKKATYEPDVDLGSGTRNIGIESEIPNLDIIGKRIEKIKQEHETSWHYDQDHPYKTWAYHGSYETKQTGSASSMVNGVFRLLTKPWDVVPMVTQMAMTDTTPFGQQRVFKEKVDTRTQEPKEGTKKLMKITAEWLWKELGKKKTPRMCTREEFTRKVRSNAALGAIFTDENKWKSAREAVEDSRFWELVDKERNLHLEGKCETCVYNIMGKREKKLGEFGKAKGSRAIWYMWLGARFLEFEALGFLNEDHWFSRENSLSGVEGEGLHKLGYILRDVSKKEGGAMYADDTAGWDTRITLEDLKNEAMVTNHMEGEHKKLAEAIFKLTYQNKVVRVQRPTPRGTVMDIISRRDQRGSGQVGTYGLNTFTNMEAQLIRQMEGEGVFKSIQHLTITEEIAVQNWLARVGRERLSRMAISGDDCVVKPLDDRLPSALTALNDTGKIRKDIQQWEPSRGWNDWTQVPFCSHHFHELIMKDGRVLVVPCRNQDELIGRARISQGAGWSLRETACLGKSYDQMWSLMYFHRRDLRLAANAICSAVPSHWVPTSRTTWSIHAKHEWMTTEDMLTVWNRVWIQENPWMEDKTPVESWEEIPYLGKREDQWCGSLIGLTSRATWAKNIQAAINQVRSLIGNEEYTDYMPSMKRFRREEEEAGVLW
# Leucine aminopeptidase = target: T5, Leucine aminopeptidase (Plasmodium falciparum 3D7, UniProt Q8IL11); test: P. falciparum M17LAP inhibitors, primary screen, biochemical, fluorogenic H-Leu-NHMec substrate, 1536-well (AID 1619); assay type: functional
# T5 sequence (Q8IL11 whole entry): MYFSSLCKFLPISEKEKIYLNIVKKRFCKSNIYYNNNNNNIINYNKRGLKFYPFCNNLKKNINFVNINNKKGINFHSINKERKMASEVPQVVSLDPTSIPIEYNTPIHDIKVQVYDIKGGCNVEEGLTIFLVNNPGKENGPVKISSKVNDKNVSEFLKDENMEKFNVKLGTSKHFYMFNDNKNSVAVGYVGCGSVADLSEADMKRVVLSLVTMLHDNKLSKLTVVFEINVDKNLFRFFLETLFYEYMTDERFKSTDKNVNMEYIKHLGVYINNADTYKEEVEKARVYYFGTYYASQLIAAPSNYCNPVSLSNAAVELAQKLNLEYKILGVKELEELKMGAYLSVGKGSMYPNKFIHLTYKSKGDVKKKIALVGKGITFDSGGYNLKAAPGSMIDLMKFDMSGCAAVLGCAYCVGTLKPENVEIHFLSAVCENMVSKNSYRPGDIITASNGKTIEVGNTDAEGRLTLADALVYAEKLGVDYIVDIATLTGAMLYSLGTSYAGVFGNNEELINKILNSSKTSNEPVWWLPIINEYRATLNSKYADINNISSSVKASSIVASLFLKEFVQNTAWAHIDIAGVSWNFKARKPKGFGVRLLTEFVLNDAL
# cells [10] = assay type: functional, cell-based; remark: listed apart in the source
# [11] = Luminescence Cell-Based Dose Response HTS to Identify Activators of Luciferase Translation or Activity in H4 […] Cells. [Related pubchem assays: 1829 (Project Summary), 1814 (Primary HTS)]; assay type: functional
# [12] = target: T6, Trace amine-associated receptor 1 (Homo sapiens, UniProt Q96RJ0); test: Counterscreen for agonists of the human trace amine associated receptor 1 (hTAAR1): Fluorescence-based cell-based high throughput dose response assay to identify hTAAR1 agonist that also desensitize TAAR1 receptor response.; assay type: functional
# T6 sequence (Q96RJ0 whole entry): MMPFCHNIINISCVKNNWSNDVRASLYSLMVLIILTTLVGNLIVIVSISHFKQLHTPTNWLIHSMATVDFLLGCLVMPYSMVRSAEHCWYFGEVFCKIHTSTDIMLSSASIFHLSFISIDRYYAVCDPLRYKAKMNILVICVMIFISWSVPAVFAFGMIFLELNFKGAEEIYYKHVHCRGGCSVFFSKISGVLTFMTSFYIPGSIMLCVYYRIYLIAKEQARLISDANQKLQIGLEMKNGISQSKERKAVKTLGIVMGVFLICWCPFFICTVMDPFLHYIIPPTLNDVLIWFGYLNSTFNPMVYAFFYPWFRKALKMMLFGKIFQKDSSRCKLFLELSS
# [13] = target: T6, Trace amine-associated receptor 1; test: Fluorescence-based cell-based high throughput dose response assay to identify agonists of the human trace amine associated receptor 1 (TAAR1).; assay type: functional
# cells [14] = assay type: functional, cell-based; remark: listed apart in the source
# H4 = test: Luminescence Cell-Based Dose Response HTS to Identify Activators of 5'UTR Stem-Loop Driven Prion Protein mRNA Translation in H4 Neuroglioblastoma Cells. [Related pubchem assays: 1829 (Project Summary), 1814 (Primary HTS)]; assay type: functional; conditions: Homo sapiens
# [15] = P. falciparum Dd2 growth inhibitors, dose response, SYBR Green, cherry-picked samples (AID 1159567); assay type: functional, cell-based
# [16] = HepG2 cell cytotoxicity, dose response, cytotoxicity control, cherry-picked samples (AID 1159577); assay type: functional, cell-based
# [17] = target: T7, Heat shock factor protein 1 (Mus musculus, UniProt P38532); test: inhibition of MG132-induced HSE-luciferase signal, confirmation, cell-based, NIH3T3, luminescence, dose retest (AID 2382); assay type: functional;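 note: NIH3T3 fibroblasts with HSF1-driven luciferase reporter stressed by proteasome inhibitor MG132; luminescence from HSF1-driven luciferase expression after 8 hours of MG132 stress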
# T7 sequence (P38532 whole entry): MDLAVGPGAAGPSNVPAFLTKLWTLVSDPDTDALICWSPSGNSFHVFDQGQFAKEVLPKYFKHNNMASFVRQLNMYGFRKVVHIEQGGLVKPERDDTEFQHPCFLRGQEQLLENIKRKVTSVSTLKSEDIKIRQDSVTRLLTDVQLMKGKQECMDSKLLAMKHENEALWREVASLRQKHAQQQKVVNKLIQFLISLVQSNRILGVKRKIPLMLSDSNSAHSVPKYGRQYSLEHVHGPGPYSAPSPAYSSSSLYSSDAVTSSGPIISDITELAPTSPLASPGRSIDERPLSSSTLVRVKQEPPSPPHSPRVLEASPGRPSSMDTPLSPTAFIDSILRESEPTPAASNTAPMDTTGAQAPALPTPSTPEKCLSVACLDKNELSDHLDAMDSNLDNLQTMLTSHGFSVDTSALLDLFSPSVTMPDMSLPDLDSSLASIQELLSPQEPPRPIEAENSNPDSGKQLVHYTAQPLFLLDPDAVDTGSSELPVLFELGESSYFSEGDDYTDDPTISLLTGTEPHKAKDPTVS
smiles,measurement,setting,value
O=C(Nc1ccc(N2CCCC2)cc1)c1cccc(F)c1,IC50,[1],> 67.5 µM (inactive)
same,IC50,cells [2],> 67.5 µM (inactive)
CCCC(=O)N1CCCC(c2cc(C(=O)Nc3ccc4c(c3)OCO4)no2)C1 (stereo unspecified),IC50,[1],> 67.6 µM (inactive)
same,IC50,cells [2],> 67.6 µM (inactive)
COc1ccc(-c2csc(-c3ccccc3)n2)c(OC)c1,EC50,[3],6.64 µM (active)
same,EC50,[4],> 67.5 µM (inactive)
same,EC50,[5],> 160 µM (inactive)
same,EC50,cells [6],> 67.5 µM (inactive)
O=C(c1c(Cl)nc2sccn12)N(C(=O)c1c(Cl)nc2sccn12)c1ccc(Cl)cn1,EC50,[4],> 67.5 µM (inactive)
same,EC50,cells [6],> 67.5 µM (inactive)
CC(C)OC(=O)c1cc(NC(=O)C2C3CCC(O3)C2C(=O)O)cc(C(=O)OC(C)C)c1 (stereo unspecified),Ki,fMet-Leu-Phe receptor,41.5 µM (inactive)
CCN1C(=O)C(CC(=O)Nc2ccc(OC)cc2)N(CCc2ccccc2)C1=S (stereo unspecified),IC50,[7],15 µM (inactive)
same,IC50,[8],23.5 µM (inactive)
same,IC50,[9],38.9 µM (inactive)
Cc1ccc(C2C(C(=O)c3ccc(Br)cc3)=C(O)C(=O)N2Cc2ccco2)o1 (stereo unspecified),IC50,Genome polyprotein,> 100 µM (active)
same,Ki,fMet-Leu-Phe receptor,> 66.7 µM (inactive)
same,IC50,Leucine aminopeptidase,66.4 µM (active)
Clc1ccc(Cc2nn3c(-c4ccncc4)nnc3s2)cc1,Ki,fMet-Leu-Phe receptor,> 66.7 µM (inactive)
COC(=O)/C(=C\Nc1ccccc1)NC(=O)c1ccc(Cl)cc1Cl,IC50,[7],2.71 µM (active)
same,IC50,[8],6.89 µM (active)
same,IC50,[9],83.3 µM (inactive)
Cc1cc(C2=NN=C(NCCc3ccccc3)SC2)c(C)n1CC1CCCO1 (stereo unspecified),IC50,cells [10],> 29.9 µM (inactive)
same,EC50,[11],61.9 µM (active)
same,IC50,[12],2.84 µM (active)
same,EC50,[13],0.553 µM (active)
same,EC50,cells [14],> 29.9 µM (inactive)
same,EC50,H4,13 µM (active)
Oc1[nH]cnc2nc(-c3ccc(N(CCCl)CCCl)cc3)nc1-2,IC50,cells [2],> 67.6 µM (inactive)
O=C(NCCc1ccccc1)C(c1ccncc1)N(C(=O)c1csnn1)C1CC1 (stereo unspecified),IC50,cells [10],> 29.9 µM (inactive)
same,IC50,[12],7.59 µM (active)
same,EC50,[13],2.11 µM (active)
same,EC50,cells [14],> 29.9 µM (inactive)
C[C@@H]1CN([C@@H](C)CO)C(=O)c2cc(NC(=O)Nc3ccc(C(F)(F)F)cc3)ccc2O[C@H]1CN(C)CC1CCCCC1,AC50,[15],10.6 µM (active)
same,AC50,[16],22 µM (active)
O=c1[nH]cnc2nc(-c3ccc(N(CCCl)CCCl)cc3)[nH]c12,IC50,[1],> 67.6 µM (inactive)
Cc1ccc2[nH]c(-c3sc4nc(C)cc(C)c4c3N)nc2c1,EC50,[4],> 67.5 µM (inactive)
same,EC50,[17],21 µM (active)
same,EC50,cells [6],> 67.5 µM (inactive)
NC(=O)c1cccc(-c2ccnc3c2CC(C(=O)Nc2ccc(Cl)cc2)O3)c1 (stereo unspecified),IC50,[7],8.03 µM (active)
same,IC50,[8],18.7 µM (inactive)
same,IC50,[9],58.1 µM (inactive)
O=C(NC1=NCCS1)c1sc2cc(F)ccc2c1Cl,EC50,[4],> 67.6 µM (inactive)
same,EC50,cells [6],> 67.6 µM (inactive)
Nc1cc(Oc2ccc(Cl)cc2Cl)nc(N)n1,IC50,[7],22.8 µM (inactive)
same,IC50,[8],29.4 µM (inactive)
same,IC50,[9],83.2 µM (inactive)
